Assay results from patent publication US20070142417A1, “Substantially Pure 2-{[2-(2-Methylamino-Pyrimidin-4-YL)-1H-Indole-5-Carbonyl]-Amino}-3-Phenylpyridin-2-YL-Amino)-Propionic Acid as an IkB Kinase Inhibitor” (AVENTIS PHARMACEUTICALS INC, priority 2005, published 2007).
Read-outs that look alike come from different tables or passages of the source.

Experiments:
[1] = target: T1, IκB kinase (IKK enzyme preparation) (Homo sapiens, UniProt O14920); assay: IKK-Enzyme ELISA; type: biochemical
T1 sequence (O14920 1-756): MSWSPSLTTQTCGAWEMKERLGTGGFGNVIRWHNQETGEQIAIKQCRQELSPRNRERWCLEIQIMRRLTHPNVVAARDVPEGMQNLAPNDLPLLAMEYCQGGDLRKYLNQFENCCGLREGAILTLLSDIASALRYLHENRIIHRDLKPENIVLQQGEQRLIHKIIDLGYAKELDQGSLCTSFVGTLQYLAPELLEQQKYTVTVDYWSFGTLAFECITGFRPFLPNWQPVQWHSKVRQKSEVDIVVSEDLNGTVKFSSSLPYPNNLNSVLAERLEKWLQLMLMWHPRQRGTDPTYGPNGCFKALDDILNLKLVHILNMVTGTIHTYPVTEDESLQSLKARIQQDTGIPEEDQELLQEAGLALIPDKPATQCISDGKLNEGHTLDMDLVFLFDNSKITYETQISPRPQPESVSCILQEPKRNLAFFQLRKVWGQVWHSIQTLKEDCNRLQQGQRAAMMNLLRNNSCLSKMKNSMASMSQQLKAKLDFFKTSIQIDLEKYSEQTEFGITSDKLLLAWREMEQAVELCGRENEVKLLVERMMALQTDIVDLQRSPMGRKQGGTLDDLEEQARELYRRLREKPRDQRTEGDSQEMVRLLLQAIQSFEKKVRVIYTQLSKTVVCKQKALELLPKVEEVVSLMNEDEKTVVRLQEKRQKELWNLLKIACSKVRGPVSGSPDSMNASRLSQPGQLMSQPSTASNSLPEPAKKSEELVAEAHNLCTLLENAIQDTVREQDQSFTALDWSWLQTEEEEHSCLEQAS
Description: The assay buffer has the following composition (50 mM HEPES, 10 mM MgCl2, 10 mM β-Glycerophosphate, 2 μM Microcystin-LR, 0.01% NP-40, 5 mM DTT).
The IKK enzyme preparation was diluted 1:50 (in-house-made preparation) plus test compound in DMSO (final concentration in well: 2%).
The assay procedures were as follows:
Incubation of enzyme and compound for 30 min;
pSer36-IkB Peptide (Substrate): 40 μM;
Incubation for 45 min and Addition of anti-pSer32-pSer36-IkB Peptid-antibody;
Incubation for 45 min and transfer to protein-G-coated plate;
Incubation for 90 min followed by 3× washing;
Addition of streptavidin-HRP, then incubation 45 min followed by 6× washing;
Addition of TMB and Incubation for 15 min; and
Stop solution and read using photometer.

[2] = Pharmacokinetic procedures: compound levels in lung and plasma after intra-tracheal instillation; type: in vivo, Male Hartley guinea pigs; details: for systemic exposure after intratracheal administration: i.t. administration; for Kp at 1 h: male, Hartley, guinea pig, lung and plasma, other: intra-tracheal instillation, i.t. instillation 0.01-0.3 mg/kg, 1 h after dosing, depending on the dose, read-out: lung to plasma ratio
Description: C. Pharmacokinetic Procedures
Male Hartley guinea pigs (450-550 g) previously sensitized with ovalbumin were used for the determination of compound levels in lung and plasma. Nanomilled suspensions of Compound (A) and Compound (B) were dosed via intra-tracheal instillation at 0.01, 0.03, 0.1 and 0.3 mg/kg. One hour after dosing, animals were euthanized (Euthasol), and 1 mL blood samples were obtained by cardiac puncture and collected into heparin-coated syringes. Plasma was separated from the cellular component of the blood by centrifugation, and stored at −80° C. until assayed. Lungs were dissected out, blotted dry, weighted and stored in 20-25 mL glass vials individually at −80° C. until assayed for compound levels.
The lung to plasma ratio for Compound (A) ranges from 143 to 284 (depending on the dose) whereas the lung to plasma ratio for Compound (B) ranges from 13 to 44 (depending on the dose). These ratios were obtained by dividing the lung compound levels to that of the corresponding plasma levels at the same dose.

[3] = system: IL-1β-induced NF-κB activation; assay: NF-κB-Luciferase Reporter Mouse Model, dose response determination; type: in vivo, Balb/c female mice; details: for effect on IL-1β-induced NF-κB activity: intranasal dosing 0.3-10 mg/kg, FIGS. 1 and 2
Description: A. NF-κB-Luciferase Reporter Mouse Model Methods employed for mouse imaging studies with Compound (A) and Compound (B). General Description Compounds were used as nanomilled suspensions in 0.2% Tween-80 in PBS and were dosed through the intranasal route. Intranasal drug and inflammatory stimulus administration: Mice are anesthetized in 4% is isoflurane gas in oxygen. A volume of 25 μl is applied to each nostril and the mice are allowed to breathe in the suspension. Balb/c female mice at 6-8 weeks of age were used for studies in which AdV-NFκB-luciferase reporter was instilled in the lung. To imagine mice, they are anesthetized with 4% isoflurane in oxygen. Luciferin is delivered i.p. at a dose of 150 mg/kg. 10 minutes after luciferin injection, the animals are imaged in an IVIS200 system (Xenogen) with a one-minute bioluminescent exposure. Alternatively, 10-15 minutes post luciferin administration, mice are rapidly euthanized and internal tissues are dissected and imaged ex vivo. B. Dose Response Determination 1-2×10^8 pfu adenovirus-NFκB-luciferase is delivered intranasally 3-5 days prior to stimulation (i.n.) with an inflammatory stimulus (IL-1β or LPS). Animals are dosed i.n. with 0.3-10 mg/kg of compound 30 min—1 h prior to challenge with 0.5 μg LPS or 50 ng IL-1β. Animals are then imaged once or several times from 1 h to 24 h after the inflammatory stimulus is administered.

[4] = read-out: IC50 (nM) 50 μM ATP, 50 μM ATP
[5] = read-out: IC50 (nM) 1 mM ATP, 1 mM ATP

Which IC50 [1, 4] does the source give for `CNc1nccc(-c2cc3cc(C(=O)N[C@@H](CN(c4ccccc4)c4ccccn4)C(=O)OC)ccc3[nH]2)n1` [(C)] here?
Its IC50 is 16.8 nM.

What about the IC50 [1, 5] of the same molecule?
The IC50 was 378 nM.

For `CNc1nccc(-c2cc3cc(C(=O)N[C@@H](CN(c4ccccc4)c4ccccn4)C(=O)O)ccc3[nH]2)n1` [Compound (A), 2-{[2-(2-Methylamino-pyrimidin-4-yl)-1H-indole-5-carbonyl]-amino}-3-(phenyl-pyridin-2-yl-amino)-propionic acid], which “systemic exposure after oral administration” value [2] is on record?
The value was “low systemic exposure”.

And the “systemic exposure after intratracheal administration” value [2]?
The value was “low systemic exposure”.

What about the Kp at 1 h [2] of the same molecule?
Its Kp at 1 h is 143 to 284.

What about the ED50 ([3]; Mus musculus, intranasal nanomilled suspension, 0.3-10 mg/kg, IL-1β challenge, lung bioluminescence, read-out: estimated ED50, IL-1β-induced NF-κB activation) of the same molecule?
Its ED50 is ~1 mg/kg.

And the “effect on IL-1β-induced NF-κB activity” value [3]?
Its value is “inhibited in a dose-dependent manner”.

And the IC50 [1, 4]?
The IC50 was 0.4 nM.

And the IC50 [1, 5]?
Its IC50 is 0.08 nM.

With `CNc1nccc(-c2cc3cc(C(=O)N[C@@H](CN(c4ccccc4)c4ncccn4)C(=O)O)ccc3[nH]2)n1` [(D)] as the molecule, how does the IC50 [1, 5] read?
The IC50 was 3.8 nM.

For `CNc1nccc(-c2cc3cc(C(=O)N[C@@H](CN(c4ccccc4)c4ccccn4)C(=O)NOC)ccc3[nH]2)n1` [Compound (B)], which “lung exposure after i.t. instillation” value ([2]; 0.3 mg/kg i.t., FIG. 3) is on record?
The value was “low relative to Compound (A)”.

And the “systemic exposure after oral administration” value [2]?
The value was “highly systemically available”.

What about the “systemic exposure after intratracheal administration” value [2] of the same molecule?
The value was “highly systemically distributed”.

What about the Kp at 1 h [2] of the same molecule?
Its Kp at 1 h is 13 to 44.

What about the “effect on IL-1β-induced NF-κB activity” value [3] of the same molecule?
Its value is “inhibited in a dose-dependent manner”.

What about the IC50 [1, 4] of the same molecule?
Its IC50 is 0.8 nM.

And the IC50 [1, 5]?
Its IC50 is 56.4 nM.
